Data as given in patent publication US7666817B2, “Cellular libraries of peptide sequences (CLiPS) and methods of using the same” (The Regents of the University of California, priority 2005, dated 2010).

Tests used:
[1] = tested on: tobacco etch virus protease (TEV); assay: Dual-signal CLiPS, TEV cleavage of cell-surface displayed substrates; format: biochemical
Method: Construction of a control plasmid (pBSGXP2) expressing a fusion of the streptavidin-binding peptide (WCHPMWEVMCLR) (SEQ ID NO:34) (Rice et. al. 2006) and a GGSGGS (SEQ ID NO:01) sequence flanked by flexible linkers on the amino terminus of circularly permuted outer membrane X (CPX) and a binding peptide of SLP-76 (P2) on the carboxy-terminus was performed using primers 1, 2, and 3 with primers 4 and 5. […] Products were digested with SfiI and ligated to similarly digested pBAD33. A substrate library (pBS5XP2) of the form X5, where X is any amino acid, was constructed using PCR with a synthetic oligonucleotide incorporating NNS codons (primer 9) along with primers 1 and 8 (Table 2). The product was digested with SfiI and ligated into a similarly digested pBAD33 plasmid. Transformation of the plasmid library into electrocompetent MC1061 yielded 6×10^7 colony forming units.
A second substrate library (pBSToptP2) was created using primer 10 with primers 1 and 8. The product was digested with SfiI and ligated into a similarly digested pBAD33 plasmid. Transformation of the plasmid library into electrocompetent MC1061 yielded 5×10^7 colony forming units.
Streptavidin conjugated phycoerythrin (SAPE) was used for labeling streptavidin binding affinity ligand on the N- and C-termini of CPX (FIG. 15). […] Of the three fluorescent proteins AlajGFP-Mona gave a higher fluorescence and was used for all labeling. The resulting CPX scaffold required a 3 hr induction time due to the additional peptide that was fused to the C-terminus. For optimum labeling of cells without protease reaction, the cells were incubated for 1 hr at 22° C. with SAPE (50 nM) and AlajGFPM (250 nM). […] For the described example below 1 hr incubation was used.
(§1) For screening and clone analysis, overnight cultures were subcultured by dilution into fresh medium (1:50) and grown for 2 hrs at 37° C. The subculture was induced with 0.1% arabinose and incubated with shaking at room temperature for 3 hrs. Cell aliquots were washed with PBS (pH 8.0), and optical density at 600 nm (OD600) was measured to estimate cell concentration. Cells (10^8) were pelleted by centrifugation, the supernatant was removed, and the cells were resuspended in reaction buffer (10 μL). Following addition of the enzyme, the reaction mixture was incubated at room temperature on a rotary shaker. Cells were removed and diluted 100-fold in PBS to stop the reaction, pelleted by centrifugation, and resuspended in PBS containing SA-PE (50 nM) and AlajGFP-MONA. After incubation at room temperature (1 hr), cells were washed with PBS and analyzed or sorted using a FACSAria™ cell sorter (Becton, Dickinson and Company).
(§2) Specifically, for each sample, conversion was determined by flow cytometry analyses using the relationship
(§3) [formula] where (FL−) is the fluorescence after incubating without enzyme, (FL+) is fluorescence after incubation with enzyme, and (FL0) is fluorescence of unlabeled cells. For the recombinant FRET protein reactions, conversion was calculated by dividing the ratiometric FRET signal (yellow fluorescence/cyan fluorescence) by the FRET ratio that results from complete cleavage (Felber et al., Biotechniques 36:878-85 (2004)). For synthetic peptide reactions, conversion was calculated by dividing the fluorescence increase by the fluorescence change due to complete hydrolysis. The reported enteropeptidase KM for the physiological substrate tripsinogen is 17 μM (Light et al., J Biol Chem 259:13195-8 (1984)), but 600 μM for short DDDDK (SEQ ID NO:02) peptides (Lu et al., J Mol Biol 292:361-73 (1999)). Given KM for short peptides is much larger than the substrate concentrations that were used (<5 μM), the Michaelis-Menton model simplifies to
The reaction buffer for TEV assays was 50 mM Tris-Cl pH 8.0 supplemented with 20. mM NaCl and 2 mM CaCl2. […]

[2] = target: T1, enteropeptidase (catalytic subunit light chain) (Bos taurus, UniProt P98072); assay: CLiPS whole-cell assay, enteropeptidase cleavage of cell-surface displayed substrates (FACS); format: biochemical; settings: for change in mean fluorescence intensity after incubation with enteropeptidase before SAPE labeling: E. coli displaying reporter-substrate, flow cytometry
Chain of enteropeptidase (P98072 801-1035 limits assumed): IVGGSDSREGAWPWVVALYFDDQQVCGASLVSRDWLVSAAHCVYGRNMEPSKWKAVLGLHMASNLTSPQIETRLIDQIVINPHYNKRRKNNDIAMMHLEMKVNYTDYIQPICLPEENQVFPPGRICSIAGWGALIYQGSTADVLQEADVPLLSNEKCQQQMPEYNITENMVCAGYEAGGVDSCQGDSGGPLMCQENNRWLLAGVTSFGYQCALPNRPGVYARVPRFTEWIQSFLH
T1 construct: the catalytic subunit light chain of enteropeptidase (EP) (New England Biolabs); purchased New England Biolabs
T1 sequence (P98072 801-1035 limits assumed): as above
Method: For screening and clone analysis, overnight cultures were subcultured by dilution into fresh medium (1:50) and grown for 2 hours. The subculture was then induced with 0.04% arabinose and incubated with shaking at room temperature. Cell aliquots were harvested washed with PBS (pH 8.0) and absorbance at 600 nm (OD600) was measured to estimated density. Cells were pelleted by centrifugation, the supernatant removed and the cells resuspended in reaction buffer ([…]). The enzyme was added, and the reaction mixture was incubated at room temperature on rotary shaker (60 rpm). To stop the reaction cells were removed and diluted 100-fold in PBS, pelleted by centrifugation, and resuspended in PBS containing SA-PE (50 nM). After incubation at room temperature (1 hr), cells were washed with PBS and analyzed or sorted using a FACSAria™ cell sorter.
For enteropeptidase cleavage assays, cultures were induced for 2 hr. The reaction buffer for enteropeptidase was 50 mM Tris-Cl pH 8.0 supplemented with 20 mM NaCl and 2 mM CaCl2. […]
as §2
[formula] where (FL−) is the fluorescence after incubating without enzyme, (FL+) is fluorescence after incubation with enzyme, and (FL0) is fluorescence of unlabeled cells. For the recombinant FRET protein reactions, conversion was calculated by dividing the ratiometric FRET signal (yellow fluorescence/cyan fluorescence) by the FRET ratio that results from complete cleavage (Felber et al., Biotechniques 36:878-85 (2004)). For synthetic peptide reactions, conversion was calculated by dividing the fluorescence increase by the fluorescence change due to complete hydrolysis. […]
Given the utility of fluorescence-activated cell sorting (FACS) as a quantitative library screening tool, peptidase activity was assayed by displaying reporter-substrates on the surface of Esherichia coli (FIG. 1, panel A). […] In this way, protease activity towards a given substrate would be detectable by monitoring whole-cell fluorescence using FACS. […]

enteropeptidase [3] = settings: reported values (Light et al. 1984; Lu et al. 1999); cited from earlier work
MMP-1 = target: T2, MMP-1 (Homo sapiens, UniProt P03956); assay: Dual-signal CLiPS, MMP-1 cleavage of cell-surface displayed substrates; format: biochemical; settings: MMP substrates from sort 4 of 5X library; cells incubated with 1.5 pM MMP-1
T2 sequence (P03956 100-469): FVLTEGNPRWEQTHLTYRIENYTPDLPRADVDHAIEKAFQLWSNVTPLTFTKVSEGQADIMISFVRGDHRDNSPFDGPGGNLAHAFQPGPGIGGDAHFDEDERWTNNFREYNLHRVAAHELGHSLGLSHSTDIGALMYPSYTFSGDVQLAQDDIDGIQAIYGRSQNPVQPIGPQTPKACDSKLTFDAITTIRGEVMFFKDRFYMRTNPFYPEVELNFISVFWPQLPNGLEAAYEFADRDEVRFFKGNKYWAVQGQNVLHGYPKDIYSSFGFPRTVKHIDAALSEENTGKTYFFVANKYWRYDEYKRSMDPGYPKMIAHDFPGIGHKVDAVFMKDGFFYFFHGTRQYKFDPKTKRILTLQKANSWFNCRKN
Method: as §1, §2, §3
The MMP-1 assays were performed by incubating cells with 1.5 pM MMP-1. Sorts for hydrolysis were performed after 16 hrs, 19 hrs, and 16 hrs for sorts 1, 3 and 5, respectively (FIGS. 9 and 10). Enrichment after 4 sorts can be seen by the fluorescence shift due to MMP-1 incubation (FIG. 10) and this population was sorted a final time for hydrolyzed substrates. These clones were sequences and assayed for conversion (Table 8). […] Many of these sequences have been reported as MMP-1 substrates. However, substrates of MMP-1 with amino acids M and L at positions P1 and P3 have not previously been reported.

enteropeptidase [4] = target: T3, enteropeptidase (Bos taurus, UniProt P98072); assay: Enteropeptidase cleavage of soluble CyPet-YPet FRET fusion protein substrates (fluorimetry); format: biochemical; settings: CyPet-YPet fusion protein substrate ~0.5 μM, 0.29 nM enteropeptidase
T3 construct: the catalytic subunit light chain of enteropeptidase (EP) (New England Biolabs); purchased New England Biolabs
T3 sequence (P98072 801-1035 limits assumed): as the sequence (P98072 801-1035 limits assumed) above
Excerpt: Substrates EP2.1, EP4.1, EP4.2, and EP4.3 identified for enteropeptidase by CLiPS were amplified with YPet using reverse primer 7 with forward primers 8, 9, 10, and 11, respectively (Table1). The canonical EP substrate was amplified as a fusion to YPet using primers 7 and 12 (Table 1). As a negative control, a GSGSGS (SEQ ID NO:18) linker was substituted for the six amino acid substrate sequence using primers 7 and 13 (Table 1). These products were digested with kpnI and sphI and ligated to similarly digested plasmid containing CyPET to yielded plasmids pBC21Y, pBC41Y, pBC42Y, pBC43Y pBCEPY and pBCGSY.
Overnight cultures of MC1061 transformed with the FRET substrate encoding expression vectors described above were subcultured 1:50 and grown for 2 hrs. […] Reactions were performed in 100 μL of enteropeptidase reaction buffer with ˜0.5 μM fusion protein, as determined using the extinction coefficient of YPet at 514 nm (Nguyen et al., Nat Biotechnol 23:355-60 (2005)) and Beer's law. Enteropeptidase was added to each reaction to a final concentration of 0.29 nM and fluorescence emission at 475 nm (cyan) and 527 nm (yellow) was monitored upon excitation at 433 nm using a Safire fluorimeter (Tecan).
[formula] where (FL−) is the fluorescence after incubating without enzyme, (FL+) is fluorescence after incubation with enzyme, and (FL0) is fluorescence of unlabeled cells. […]

[5] = TEVopt library clones, 2 hour incubation with 2 units of TEV, Guava EasyCyte plate reading cytometer
[6] = top TEV substrates from 5X library, 1 hr with 10 units of TEV

Chain of tobacco etch virus protease (TEV) (P04517 2038-2255 limits assumed): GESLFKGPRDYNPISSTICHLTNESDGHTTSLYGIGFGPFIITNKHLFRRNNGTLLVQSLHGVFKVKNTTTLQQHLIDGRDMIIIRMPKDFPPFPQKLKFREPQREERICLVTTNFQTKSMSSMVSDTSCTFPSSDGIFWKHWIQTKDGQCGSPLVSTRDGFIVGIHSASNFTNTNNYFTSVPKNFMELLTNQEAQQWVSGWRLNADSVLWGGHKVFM

ALYIQG [A3]
% Conversion [1, 5]: 92.212%

DDDDKGGQS [Canonical, reference compound]
change in mean fluorescence intensity after incubation with enteropeptidase before SAPE labeling [2]: roughly twenty-fold decrease
Km (enteropeptidase [3]): 600 µM

DLYWQG [C3]
% Conversion [1, 5]: 73.3768%

DRELY [F04]
% Conversion [1, 6]: 79%

DVYVQG [A2]
% Conversion [1, 5]: 52.6409%

EEAVL [H07]
% Conversion [1, 6]: 71%

EEELY [B02]
% Conversion [1, 6]: 72%

ELYAQG [C5]
% Conversion [1, 5]: 58.8389%

ELYWQG [C4]
% Conversion [1, 5]: 68.9173%

ENLYFQS [Control, reference compound]
% Conversion [1, 5]: 66.3577%

EVYVQG [B6]
% Conversion [1, 5]: 61.0145%

FLYLQG [A1]
% Conversion [1, 5]: 91.8387%

GEDLL [F09]
% Conversion [1, 6]: 71%

GGQSGQ
change in mean fluorescence intensity after incubation with enteropeptidase before SAPE labeling [2]: minimal change in fluorescence

LEQLI [B09]
% Conversion [1, 6]: 76%

LLYIQG [D4]
% Conversion [1, 5]: 51.6773%

MPLVM
% Conversion (MMP-1): 65.9%

MPVVL
% Conversion (MMP-1): 42.8%

PEVIY [C10]
% Conversion [1, 6]: 81%

PMAVI
% Conversion (MMP-1): 69.9%

PMAVT
% Conversion (MMP-1): 50.4%

PVAMR
% Conversion (MMP-1): 72.9%

PVNVV
% Conversion (MMP-1): 78.9%

PVPMV
% Conversion (MMP-1): 49.6%

QLYFQS [C6]
% Conversion [1, 5]: 61.7894%

SLYVQG [E4]
% Conversion [1, 5]: 86.3465%

SLYWQG [D5]
% Conversion [1, 5]: 71.6599%

SSGDRMWGG [EP 4.3]
second order rate constant (kcat/KM) relative to canonical substrate DDDDK ([2]; cell-surface displayed substrates, time-dependent conversion fit to Michaelis-Menton model): 13 fold
cleavage rate relative to DDDDK (enteropeptidase [4]): 17 fold

TPLAL
% Conversion (MMP-1): 41.7%

VLYLQS [A4]
% Conversion [1, 5]: 85.4432%

VLYTQG [E6]
% Conversion [1, 5]: 54.8951%

VPVNM
% Conversion (MMP-1): 76%

VPVVM
% Conversion (MMP-1): 36.6%

WEPLW [H08]
% Conversion [1, 6]: 73%

WESLY [E11]
% Conversion [1, 6]: 77%

WLYLQG [D1]
% Conversion [1, 5]: 68.0478%

tripsinogen: physiological substrate of enteropeptidase
Km (enteropeptidase [3]): 17 µM
